The numbers were not newly measured in patent US20240100001A1, “DENATONIUM SALT FOR USE IN PREVENTING, PREVENTING PROGRESSION AND TREATING FATTY LIVER DISEASES” (AARDVARK THERAPEUTICS INC., priority 2021, published 2024), which cites them from elsewhere.

Read-outs that look alike come from different tables or passages of the source.

Data set [1] has as its system C57BL/6 male mice fed with the methionine- and choline-deficient (MCD) diet for 4 weeks. The conditions noted are these: 5 mg/kg/day PO for the last 2 weeks; cited from earlier work.
For data set [2], the system named is Male DIAMOND mice fed high fat sugar water diet (WDSW) for 24 weeks. The conditions noted are these: cited from earlier work.
Data set [3] deals with Male C57BL/6J mice fed high fat diet for 20 weeks. Particulars: 0.3 mg/kg/day PO for 20 weeks; cited from earlier work.
The test system of data set [4] is C57Bl6/J mice fed a MCD diet for 3 weeks. Particulars: 10 or 30 mg/kg, PO, QD for 3 weeks; cited from earlier work.
Data set [5] relates to C57BL/6 mice treated with 60% high fat diet for 36 weeks. The conditions noted are these: 0.3-3 mg/kg/day PO for 24 days; cited from earlier work.
The subject of data set [6] is Male C57BL/6 mice fed a CDAHFD diet for 20 weeks. The conditions noted are these: cited from earlier work.
Data set [7] relates to Male C57BL/6 mice fed a fast food diet (FF diet) for 330 days. The conditions noted are these: dose unknown, cited from earlier work.
In data set [8] the test system is AMLN model: C57BL/6J mice placed on AMLN diet for 30 weeks. The conditions noted are these: 0.03-0.9 mg/kg for the last 4 weeks; cited from earlier work.
Data set [9] deals with A mouse model of diet-induced NASH. Particulars: 10 mg/kg/day PO for eight weeks; cited from earlier work.
A further data set deals with NAFLD/NASH. The conditions noted are these: cited from earlier work; for benefit in NAFLD/NASH: agents tried so far.
In data set [10] the test system is FXR-deficient mice placed on a high-fat, high-fructose, highcholesterol diet (HFFCD) for 50 weeks. Particulars: cited from earlier work.
The test system of data set [11] is STAM model: Streptozotocin-injected 2-day old male C57BL/6 mice fed high-fat diet. The conditions noted are these: cited from earlier work.
For data set [12] the test system is unchanged. The conditions noted are these: 3 mg/kg, twice weekly, cited from earlier work.
The subject of data set [13] is Male C57BL/6J mice fed with the AMLN diet for 32 weeks. Particulars: SC for 12 weeks, Semaglutide 10 nmol/kg, cited from earlier work.
A further data set deals with patients with NASH. Particulars: cited from earlier work.
Where [14] appears, read: 30 mg/kg/day PO QD for the last 8 weeks.
The mark [15] stands for this setting: treatment started after FF diet induction for 240 days.
Where [16] appears, read: 60 mg/kg IV twice a week for 4 weeks, early treatment cohort.
Setting [17] is: SC for 2 weeks (start at Week 7).
Setting [18] is: ALT-801 5 or 10 nmol/kg (both doses).

With `CCCCCCCCCCCCCCCCCCCC(=O)N[C@H]1CC[C@@]2(C)[C@@H](C1)C[C@@H](O)[C@@H]1[C@@H]2C[C@H](O)[C@]2(C)[C@@H]([C@H](C)CCC(=O)O)CC[C@@H]12` [Aramchol], in data set [1], the features of steatohepatitis entry is on record as “Reduced”, the fibrosis result was “Reduced” and the “protein expression of COL1A1 in the liver” value was “decreased protein”.

Turning to `COc1cccc(C(=O)COc2ccc(CC3SC(=O)NC3=O)cc2)c1` (stereo not drawn) [Azemiglitazone], the ballooning entry in data set [2] (30 mg/kg/day PO QD for the last 8 weeks (16-24 weeks)) is listed as “decreased”. In addition, in data set [2] (setting [14]), the “NASH CRN fibrosis score” value is recorded as “group was 0”, the “mice progressed from simple steatosis to NASH compared to the control group” value is “fewer MSDC-”, the “serum level of ALT” value is recorded as “reduced serum” and the “serum level of AST” value is reported as “reduced serum”. Also, the “serum level of fasting insulin” value in data set [2] (setting [14]) is recorded as “reduced serum”. The “NAFLD Activity Score (NAS)” value in data set [2] (30 mg/kg/day PO QD for the last 8 weeks, trended lower) was “(NAS) trended”.

As for `C[C@H](NC(=O)C(=O)Nc1ccccc1C(C)(C)C)C(=O)N[C@@H](CC(=O)O)C(=O)COc1c(F)c(F)cc(F)c1F` [Emricasan], in [3], the HOMA-IR entry was “Decreased”; the ballooning on histopathology result was “Improved”; the fibrosis on histopathology entry is reported as “Improved”; the “fibrotic and inflammatory gene signature” value is on record as “Decreased”. In [3], the inflammation on histopathology entry is listed as “Improved”, the “serum level of ALT” value is “Decreased”, the “serum level of AST” value is reported as “Decreased” and the “serum level of cholesterol” value is recorded as “Decreased”. The “serum level of glucose” value in [3] is “Decreased”.

On to `O=C(O)CCCc1cc2cc(Cl)ccc2n1S(=O)(=O)c1ccc2ncsc2c1` [Lanifibranor], for which, in data set [4], the inflammation on histopathology entry is “prevented”, the liver triglyceride levels result was “decreased”, the “plasma alanine aminotransferase levels” value is reported as “reduced plasma” and the serum triglyceride levels result is reported as “decreased”. Moreover, the steatosis on histopathology result in [4] was “prevented”.

Turning to `CC(C)c1cc(Oc2c(Cl)cc(-n3nc(C#N)c(=O)[nH]c3=O)cc2Cl)n[nH]c1=O` [Resmetirom], in data set [5], the “fibrosis in treated livers” value was “No detectable”; the “inflammation in treated livers” value is “No detectable”; the insulin sensitivity entry is on record as “Improved”; the “reduced serum level of ALT” value is “(46%), free”. In addition, in [5], the “reduced serum level of cholesterol” value was “(67%)” and the “steatosis in treated livers” value is recorded as “No detectable”.

As to `CCO[C@@H](Cc1ccc(OCCn2c(C)ccc2-c2ccc(SC)cc2)cc1)C(=O)O` [Saroglitazar], in data set [6] (3 mg/kg PO for 12 weeks), the ballooning entry was “reduced or no”, the hepatic steatosis entry is reported as “reversal of” and the vacuolation result is on record as “reduced or no”. Moreover, in [6] (3 mg/kg), the “Liver lipid (TG) accumulation attenuated” value is listed as 79%; the “hepatic fibrogenic and inflammatory gene expression” value is on record as “also reduced”; the “liver TNFα levels” value is given as “also reduced”; the “liver collagen content attenuated” value is recorded as 41%. Also, in data set [6] (3 mg/kg), the “reduced serum level of ALT” value is “(60%), AST” and the “reduced serum level of MCP1” value is given as “MCP1 (45%)”.

For the compound `Cc1cc(F)c(C(=O)Nc2cccc(-c3nncn3C(C)C)n2)cc1-n1cnc(C2CC2)c1` [Selonsertib], in [7], the Reduced liver cholesterol was 45%, the Reduced serum cholesterol is 14%, the serum bile acids result was “reduced serum” and the serum cholate reduction result is “cholate (91%”. The serum deoxycholate reduction result in data set [7] is on record as “(90% reduction)”. Moreover, in data set [7] (setting [15]), the fibrosis result was “reduced liver”, the insulin resistance result is “reduced liver” and the liver steatosis entry is “reduced liver”.

As for `O=C(O)c1cc(F)c2nc(N3[C@@H]4CC[C@H]3C[C@@H](OCc3c(-c5ccccc5OC(F)(F)F)noc3C3CC3)C4)sc2c1` [Tropifexor], in data set [8], the fibrosis result is listed as “reduced”, the “hepatic inflammation cell populations” value is listed as “reduced mRNA”, the inflammation entry was “reduced” and the “mRNA levels of fibrogenic markers” value is given as “reduced mRNA”. Moreover, in [8], the steatosis entry was “reduced”.

Take `Cc1cc(OCP2(=O)OCC[C@@H](c3cccc(Cl)c3)O2)cc(C)c1Cc1ccc(O)c(C(C)C)c1` (stereo partly drawn) [VK2809]: in data set [9], the “NAS score mean improvement” value was “score (a 40%”; the “all subcomponents of NAS (inflammation, ballooning, and steatosis)” value is reported as “Improvements”; the “liver content of cholesterol” value is listed as “improved liver”; the “liver content of collagen” value is “improved liver”. In data set [9], the “liver content of hydroxyproline” value is reported as “improved liver”, the “liver content of triglyceride” value is recorded as “improved liver”, the “liver fibrosis on histopathology” value is “improved NAS” and the plasma cholesterol result is “reduced plasma”. For the same compound, the plasma triglycerides entry in data set [9] is reported as “reduced plasma”.

Turning to `CCCCCCCCCCC[C@@H](C[C@@H]1OC(=O)[C@H]1CCCCCC)OC(=O)[C@H](CC(C)C)NC=O` [orlistat], in the data set on NAFLD/NASH (in vivo), the “benefit compared to diet and exercise (weight loss alone)” value is reported as “no significant benefit”.

On to `CC(=O)CCCCn1c(=O)c2c(ncn2C)n(C)c1=O` [pentoxifylline], for which the “benefit in NAFLD/NASH” value in the data set on NAFLD/NASH is recorded as “unsuccessfully or with only modest benefit”.

On to `O=C1O[C@H]([C@@H](O)CO)C(O)=C1O` [vitamin C], for which, in the data set on NAFLD/NASH, the “benefit in NAFLD/NASH” value is given as “unsuccessfully or with only modest benefit”.

Turning to `Cc1c(C)c2c(c(C)c1O)CC[C@@](C)(CCC[C@H](C)CCC[C@H](C)CCCC(C)C)O2` [vitamin E, α-tocopherol], the “benefit in NAFLD/NASH” value in the data set on NAFLD/NASH was “unsuccessfully or with only modest benefit”.

Turning to Aldafermin, in [10] (delivered by AAV at Week 16), the “hepatic expression of inflammatory and fibrotic biomarkers” value was “decreased”; the hepatocellular fibrosis result was “reduced”; the “serum level of ALT” value is listed as “reduced serum”; the “serum level of AST” value is on record as “reduced serum”. In addition, in [10] (delivered by AAV at Week 16), the spleen weight entry is on record as “reduced liver” and the steatosis entry is listed as “not impact”. Moreover, the liver weight result in data set [10] (delivered by adeno-associated viral vector (AAV) at Week 16) was “reduced liver”.

As to Belapectin, in [11] (60 mg/kg IV twice a week for 4 weeks), the “expression of pathological indicators including iNOS, CD36, and a-smooth muscle actin” value is reported as “reduced the”. The fat deposition result in [11] (60 mg/kg IV twice a week for 4 weeks, early treatment cohort (from Week 6)) is reported as “Decreased fat”. For the same compound, in [11] (setting [16]), the hepatocellular ballooning entry was “Decreased fat” and the inflammatory infiltrate result is “Decreased fat”. The NAS score entry in data set [11] (early treatment cohort (from Week 6), significant) was “improved NAS”. In [11] (late treatment cohort (from Week 9), did not reach significance), the “NAS versus vehicle control” value was “improvement”.

Regarding Pegbelfermin, in data set [12] (setting [17]), the “mean grade for hepatocellular ballooning” value was “decreased”, the “mean grade for lobular inflammation” value is given as “decreased” and the “mean grade for steatosis” value is “decreased”. In addition, in data set [12] (SC for 2 weeks), the “decrease of mean serum fibrosis biomarker Pro-C3” value is listed as “C3 by 44%”; the liver triglycerides result is on record as “improved”; the liver/body weight ratio entry was “(−20%), as well”; the plasma triglycerides result is reported as “improved”. For the same compound, in data set [12] (SC for 2 weeks), the whole blood glucose result is “glucose (−30%),”.

Take semaglutide: in data set [13] (setting [18]), the NAS overall score result was “decreased liver” and the liver weight result is given as “decreased liver”. For the same compound, in data set [13] (ALT-801 5 or 10 nmol/kg), the “liver TG level” value is reported as “decreased liver”, the “liver content of fibrosis markers” value is reported as “decreased liver”, the “liver total cholesterol level” value is given as “decreased liver” and the “plasma ALT level” value is “decreased liver”. Also, the “percentage of patients with NASH resolution and no worsening of fibrosis” value in the data set on patients with NASH (0.1-mg group) was 40%. Besides, the “percentage of patients with NASH resolution and no worsening of fibrosis” value in the data set with patients with NASH (0.2-mg group) is recorded as 36%. In the data set on patients with NASH (0.4-mg group), the “mean percent weight loss” value was 13%; the “percentage of patients with NASH resolution and no worsening of fibrosis” value is given as 59%. Besides, the “percentage of patients with an improvement in fibrosis stage vs placebo” value in the data set on patients with NASH (daily subcutaneous) is on record as “did not show a significant between-group difference”. In the data set with patients with NASH (human, in vivo), the incidence of constipation is reported as 22%, the incidence of nausea is 42%, the incidence of vomiting is 15% and the “patients with malignant neoplasms” value is listed as 1%. In addition, the “patients with neoplasms (benign, malignant, or unspecified)” value in the data set with patients with NASH (human, in vivo) was 15%.
